In patent US5932618A, “Anti-viral agents and methods relating to the use thereof” (Signal Pharmaceuticals, Inc., priority 1996, dated 1999):

How the values were obtained:
[1] = tested on: HCMV pol promoter (pol-luc cells); assay: Luciferase reporter assay in pol-luc cells 48 hours after HCMV infection; assay type: cell-based; conditions: 48 hours after infection with 3 pfu/cell HCMV, increasing amounts of compound in DMSO
Method: The Pol promoter sequence, from position -425 to +15, was amplified by PCR using cosmid pCM1058 (Peter Ghazal) as template. The primers are: 5'-[…]-3' (sense primer), and 5'-[…]-3' (antisense primer). These oligo primers introduced a HindIII restriction site at the 5' and 3' end of Pol promoter fragment. The HindIII digested PCR fragment was inserted into HindIII digested pGL2-basic luciferase reporter plasmid (Promega, Madison, Wis.). The promoter direction was determined and PCR fidelity of the promoter sequence was confirmed by sequencing.
(§1) B. Establishment of Stable Cell Lines
(§2) The HCMV permissive human glioblastoma cell line U373 MG was transfected with the constructs described above. […]
(§3) Cells were infected with HCMV (Towne strain, obtained from American Type Culture Collection, Rockville, Md.) at 5-10 pfu/cell. […] Plates were read immediately in a Packard TopCount™ (Packard, Hartford, Conn.). Clones showing high luciferase inducibility were further analyzed by PCR to ascertain the integrity of the reporter transcriptional unit integrated into the genomic DNA. […]
(§4) Cells are maintained in DMEM (Mediatech, Herndon, Va.) supplemented with 10% fetal bovine serum (Gemini Bioproducts, Inc., Calabasas, Calif.), 1% antimycotic/antibiotic (GIBCO, Baltimore, Md.) and 0.6 μg/mL G148 (GIBCO, Baltimore, Md.). […] Luciferase activity (luminescence) in each well is then measured using a Packard Topcount™. […]

[2] = tested on: HCMV pp28 promoter (pp28-luc cells); assay: Luciferase reporter assay in pp28-luc cells 48 hours after HCMV infection; assay type: cell-based; conditions: 48 hours after infection with 3 pfu/cell HCMV, increasing amounts of compound in DMSO
From the text: The pp28 promoter sequence, from position -609 to +106, was amplified by PCR using cosmid pCM1 (Peter Ghazal, Scripps Research Institute) as a template. The oligonucleotide primer sequences are:
These oligonucleotides primers introduced a KpnI restriction site at the 5'-end and a HindIII site at the 3'-end of the pp28 promoter fragment. Unique sites, KpnI and HindIII allowed directional cloning into the pGL2-basic luciferase reporter plasmid (Promega, Madison, Wis.), resulting in the pp28-luc promoter construct shown in FIG. 2. The PCR fidelity of the pp28 promoter sequence was confirmed by sequencing.
B. Establishment of Stable Cell Lines […]
as §3, §4

[3] = tested on: MIEP viral immediate early promoter (MIEP-luc cells); assay: Luciferase reporter assay in MIEP-luc cells 48 hours after HCMV infection; assay type: cell-based; conditions: 48 hours after infection with 3 pfu/cell HCMV, increasing amounts of compound in DMSO
Method: The MIEP promoter sequence, from position -1145 to +122, was amplified by PCR using plasmid pSE as a template. The primers are: 5'-[…]-3' (sense primer), and 5'[…]-3' (antisense primer). These oligo primers introduced a KpnI restriction site at the 5' and 3' end of MIEP promoter fragment. The KpnI digested PCR fragment was inserted into KpnI digested pGL2-basic luciferase reporter plasmid (Promega, Madison, Wis.). The promoter direction was determined and PCR fidelity of the promoter sequence was confirmed by sequencing.
as §1, §2, §3, §4

[4] = tested on: β-actin cellular promoter (β-actin-luc cells); assay: Luciferase reporter assay in β-actin-luc cells 48 hours after HCMV infection; assay type: cell-based; conditions: 48 hours after infection with 3 pfu/cell HCMV, increasing amounts of compound in DMSO
Method: This Example illustrates the use of the cell lines of Example 1 for identifying inhibitors of viral gene expression.
Cells are maintained in DMEM (Mediatech, Herndon, Va.) supplemented with 10% fetal bovine serum (Gemini Bioproducts, Inc., Calabasas, Calif.), 1% antimycotic/antibiotic (GIBCO, Baltimore, Md.) and 0.6 μg/mL G148 (GIBCO, Baltimore, Md.). Cells are seeded at 3×10^4 cells per well in flat-bottom, tissue culture treated 96-well plates (Corning, Corning, N.Y.) and incubated for about 18 hours in a 37° C. humidified environment. Appropriately diluted candidate modulators are then added directly to the media on cells to a final concentration of 10 μg/mL, and the plates incubated for 30 minutes at 37° C. HCMV (Towne strain, ATCC) is then added at 3 pfu/cell. Forty-eight hours post-infection, the cells are washed once with PBS (without Ca^++ and Mg^++) and lysed in the 96-well plate. An aliquot of the cell lysate is then transferred to a black 96-well plate (Packard, Hartford, Conn.) and luciferase assay reagent (Promega, Madison, Wis.) is added to the plate. Luciferase activity (luminescence) in each well is then measured using a Packard Topcount™. […]
This Example illustrates anti-viral activity of representative compounds of this invention as determined in accordance with Examples 1-4 above. […]

[5] = tested on: HCMV viral DNA replication; assay: Viral DNA replication determined by dot blot analysis in stable clones; assay type: cell-based, HCMV (Towne strain); conditions: in presence of PAA (200-400 μg/ml), three different stable clones, data not shown
Method: The response of the integrated reporter plasmids to HCMV infection was also examined in the presence and absence of the well characterized viral DNA inhibitor phosphonoacetic acid (PAA, Sigma, St. Louis, Mo., 99.7 purity). The results are presented in FIG. 7 (P-luc), FIG. 8 (pol-luc) and FIG. 9 (pp28-luc). Cells were seeded into a 96 well plate in G418 selection media. The following day, cells were treated in the absence (lanes 1 and 4, panels B and C) or presence of PAA at 200 μg/mL (lanes 2 and 5, panels B and C) and 400 μg/mL (lanes 3 and 6, panels B and C). Cells were then superinfected with HCMV at 10 pfu/cell. Forty-eight hours post-infection, cells were harvested and isolated for either mRNA preparation, protein lysates or the luciferase assay. Luciferase activity measured as described above is shown in panels A of FIGS. 7-9. Northern analyses were performed on mRNA using probes for luciferase, MIEP-, pol- or pp28-specific mRNA and beta-actin mRNA to quantitate the amount of mRNA in each lane (panels B). Protein lysates were used for western blot analysis using antibody specific against luciferase (panels C). […] Viral DNA replication in presence of PAA was inhibited by nearly 90 percent as determined by dot blot analysis in three different stable clones (data not shown). […]

U373 MG cells = assay type: cell-based, human; conditions: PAA 200-400 μg/ml, MTS cytotoxicity assay, data not shown

Row | SMILES | inhibition of luciferase reporter expressed from the HCMV pol promoter [1] | inhibition of luciferase reporter expressed from the HCMV pp28 promoter [2] | inhibition of reporter gene expressed from the MIEP viral immediate early promoter [3] | inhibition of reporter gene expressed from the β-actin cellular promoter [4] | inhibition of viral DNA replication [5] [%] | toxicity to U373 MG cells (U373 MG cells)
1 | O=C(Nc1cccc([N+](=O)[O-])c1)c1cc(Cl)c2ccccc2c1O [compound (IV)] | specific inhibition | specific inhibition | no inhibition | no inhibition |  | 
2 | COc1cc([N+](=O)[O-])ccc1NC(=O)c1cc(Cl)c2ccccc2c1O [compound (V)] | specific inhibition | specific inhibition | no inhibition | no inhibition |  | 
3 | O=C(O)CP(=O)(O)O [PAA, phosphonoacetic acid] |  |  |  |  | ~90 | not toxic
